Assay results as given in patent US9783546B2, “Compounds” (GlaxoSmithKline Intellectual Property Development Limited, priority 2014, dated 2017).

Columns and labels:
[1] = test system: proinflammatory (M1) and anti-inflammatory (M2) markers in macrophages; test: Ex vivo analysis of M1 and M2 markers in macrophages of EAE rats by realtime PCR; design: species or system rat; settings: splenic macrophages at day 13 post MBP-immunization and CNS infiltrating macrophages
Protocol: Ex vivo analysis of proinflammatory (M1) and anti-inflammatory (M2) markers in control and compound treated EAE rats. Splenic macrophages were harvested at day 13 post MBP-immunization and assayed for expression of a variety of markers by realtime PCR. CNS infiltrating cells were harvested and macrophages were analyzed for expression of M1 and M2 markers by realtime PCR.

[2] = test system: experimental autoimmune encephalomyelitis (EAE) rats; test: Rat experimental autoimmune encephalomyelitis (EAE) model, preventive treatment; type: in vivo; settings: rats immunized with MBP
Protocol: A further study was carried out to study the impact of Lp-PLA2 inhibitors on modulating M1/M2 imbalance. In this study, rats were induced to develop experimental autoimmune encephalomyelitis (EAE) by immunization with myelin basic protein (MBP) antigen and treated with a known Lp-PLA2 inhibitor: 5-(9-Methoxy-4-oxo-6,7-dihydro-4H-pyrimido[6,1-a]isoquinolin-2-yl)oxy)-2-(3-(trifluoromethyl)phenoxy)benzonitrile (See PCT application no. PCT/CN2011/001597). In this preventive treatment model, the compound was administered at day 0 (day of immunization) and continued to administer until day 22. The study lasted for 25 days. Rats were subsequently monitored for symptoms of EAE. Rats were immunized with MBP to develop EAE and symptoms were monitored daily. Plasma Lp-PLA2 activity, OxLDL, and LysoPC concentration were determined at different time points through the course of EAE.

Lp-PLA2 in human plasma = molecular target: T1, Lp-PLA2 in human plasma (Homo sapiens, UniProt Q13093); test: Lp-PLA2 Human Plasma assay, Thio-PAF assay; type: biochemical; settings: pooled human plasma, 2-thio-PAF substrate; read-out: pIC50 value in the Lp-PLA2 human plasma assays (converted)
T1 construct: from tissue; host or cells: pooled human plasma
T1 sequence (Q13093 22-441): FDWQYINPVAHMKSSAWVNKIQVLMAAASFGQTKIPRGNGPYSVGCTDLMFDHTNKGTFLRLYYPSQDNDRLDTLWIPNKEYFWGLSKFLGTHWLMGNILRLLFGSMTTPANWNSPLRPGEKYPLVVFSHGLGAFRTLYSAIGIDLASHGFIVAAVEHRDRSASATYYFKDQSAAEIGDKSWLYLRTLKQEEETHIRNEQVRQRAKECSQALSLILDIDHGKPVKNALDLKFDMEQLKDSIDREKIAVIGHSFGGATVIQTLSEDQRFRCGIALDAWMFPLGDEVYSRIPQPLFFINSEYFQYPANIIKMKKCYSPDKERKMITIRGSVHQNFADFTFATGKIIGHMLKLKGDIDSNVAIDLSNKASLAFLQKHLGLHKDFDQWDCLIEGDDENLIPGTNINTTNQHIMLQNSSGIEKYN
Text: (3) Lipoprotein-associated phospholipase A2 (Lp-PLA2) Human Plasma assay-Thio-PAF assay
The human plasma assay utilizes a thioester analog of PAF (phosphatidylcholine), where hydrolysis yields to the formation of a phospholipid containing a free thiol group. The amount of thiol is quantitated continuously by reacting with CPM (7-diethylamino-3-(4′-maleimidylphenyl)-4-methylcoumarin), a maleimide which increases in fluoresence after Michael addition of thiols. This assay may detect the activity of Lp-PLA2 in human plasma, as determined by specific inhibition by Lp-PLA2 inhibitors.
The thio-PAF assay was run as a quenched 15 μL assay. Compounds source plate was prepared by making 1:3 (by volume) serial dilution of the compounds into pure DMSO on 384-well microplate. […] of compounds on compound source plate were transferred to 384 well Greiner 784076 (black) low-volume plates by ECHO liquid dispenser. 8 μL pooled human plasma, which was previously aliquoted and frozen, was added. Plates were centrifuged for 10 sec at 500 rpm. […] Plates were read at ex: 380/em: 485 using Envision microplate reader. […]

[3] = molecular target: T2, recombinant human Lp-PLA2 (Homo sapiens, UniProt Q13093); test: Recombinant human Lp-PLA2 assay (rhLp-PLA2), PED6 assay; type: biochemical; settings: PED6 substrate, 30 minutes preincubation; read-out: rhLp-PLA2 (pIC50) (converted)
T2 sequence (Q13093 22-441): T1 sequence (Q13093 22-441)
Text: (1) Recombinant human Lp-PLA2 assays (rhLp-PLA2)-PED6 assay
N-((6-(2,4-dinitrophenyl)amino)-hexanoyl)-2-(4,4-difluoro-5,7-dimethyl-4-bora-3a,4a-diaza-s-indacene-3-pentanoyl)-1-hexadecanoyl-sn-glycero-3-phosphoethanolamine, triethylammonium salt (PED6) is a commercially available fluorescently-labeled phospholipid, which is commercially available from Invitrogene and Molecular Probes. There is a quenching para-nitro phenyl (PNP) group in the sn3 position and a Bodipy fluorescein (FL) group in the sn2 position. Upon cleavage with Lp-PLA2, the Bodipy FL group is liberated and then may result in an increase in fluorescence. Inhibitors of Lp-PLA2 therefore prevent this cleavage and no fluorescent increase is observed.
The PED6 assay was run as an unquenched 10 μL assay. The source plate containing the compounds to be tested was prepared by making 1:3 (by volume) serial dilution of the compounds within DMSO on 384-well microplate. Then, 0.01 μL of the compounds on compound source plate were transferred into 384 well Greiner 784076 (black) plates using ECHO liquid dispenser. […] The plates were read for fluorescence intensity at ex: 480/em: 540 using ViewLux microplate imager for Envision spectrofluroimeters. pIC50 data, curve and QC analysis was conducted by using XL fit module in Excel. […]

[4] = compound administered day 0 until day 22, plasma

IC50 (Lp-PLA2 in human plasma) | IC50 [3] | SMILES | M1 markers expression [1] | M2 markers expression [1] | clinical disease (EAE) ([2]; compound administered day 0 until day 22) | Lp-PLA2 activity in rat EAE plasma [2, 4] | LysoPC levels in rat EAE plasma [2, 4]
– | – | COc1ccc2c(c1)CCn1c-2cc(Oc2ccc(Oc3cccc(C(F)(F)F)c3)c(C#N)c2)nc1=O [5-(9-Methoxy-4-oxo-6,7-dihydro-4H-pyrimido[6,1-a]isoquinolin-2-yl)oxy)-2-(3-(trifluoromethyl)phenoxy)benzonitrile] | decrease in M1 markers | increase in M2 markers | reduction in clinical disease | decreased Lp-PLA2 activity | decreased
7.94 nM | 0.158 nM | O=c1nc(OCc2cc(F)c(Oc3ccnc(C(F)(F)F)c3)c(F)c2)cc2n1C[C@H]1CCCN21 [Example 1, (R)-3-((3,5-difluoro-4-((2-(trifluoromethyl)pyridin-4-yl)oxy)benzyl)oxy)-7,8,8a, 9-tetra hydropyrrolo[1′,2′;3,4]imidazo[1,2-c]pyrimidin-1(6H)-one] | – | – | – | – | –
20 nM | 0.316 nM | O=c1nc(OCc2cc(F)c(Oc3ccnc(C(F)(F)F)c3)c(F)c2)cc2n1C[C@@H]1CCCN21 [Example 2, (S)-3-((3,5-difluoro-4-((2-(trifluoromethyl)pyridin-4-yl)oxy)benzyl)oxy)-7,8,8a, 9-tetra hydropyrrolo[1′,2′:3,4]imidazo[1,2-c]pyrimidin-1(6H)-one] | – | – | – | – | –
